Measured values reported in patent publication USH505H, “Boron uptake in tumors, cerebrum and blood from [10B]NA4B24H22S2” (The United States of America as represented by the United …, priority 1986, dated 1988).

Test system: Harding-Passey (HP) melanomas
Assay: Boron concentrations in melanoma tumor, blood and cerebrum of mice after intraperitoneal administration (prompt gamma analysis)
Parameters: species or system female BALB/cJ mice
Settings: mouse, in vivo, ip
Protocol: Aqueous solutions of [^10 B]Na2 B12 H11 SH or [^10 B]Na4 B24 H22 S2 were infused slowly intraperitoneally [~200 μl capacity osmotic pump, model 2001, Alza Corp., Palo Alto, Calif.] or were injected intraperitoneally promptly into 15-20 g female BALB/cJ mice bearing subcutaneously implanted Harding-Passey (HP) melanomas. In experiment 6 (Table 1), 5.3×10^-3 M Na2 S2 O5 was added to retard oxidation of [B12 H11 SH]^2-. Mice were deeply anesthetized with ether and then killed by exsanguination at times specified in Table 1. The osmotic pumps were designed to function for 219±6 hr, although the precise duration of their infusion in each mouse is unknown.
Tissue and blood specimens in quartz test tubes, with sufficient H2 O added to bring each sample to a total weight of 1.00 g, were analyzed for boron by counting 478 keV gamma photons from the ^10 B(n,αγ)^7 Li reaction during irradiation by slow neutrons.

Na2 B12 H11 SH was tested, and the Blood boron concentration (34.5 mg/kg, 24 h) was 6.3 ± 2.2 μgB/g, the Cerebrum boron concentration (34.5 mg/kg, 24 h) was 4.9 ± 3.8 μgB/g and the “Concentration ratio Tumor:Blood” value (34.5 mg/kg, 24 h) was 1.0. It also gave a Tumor boron concentration (34.5 mg/kg, 24 h) of 6.3 ± 2.2 μgB/g, a Blood boron concentration (35.4 mg/kg, 6 h) of 3.8 ± 9.9 μgB/g and a Cerebrum boron concentration (35.4 mg/kg, 6 h) of 3.8 ± 3.4 μgB/g. For the same substance, the “Concentration ratio Tumor:Blood” value (35.4 mg/kg, 6 h) was 2.3, the Tumor boron concentration (35.4 mg/kg, 6 h) was 8.7 ± 9.9 μgB/g and the Blood boron concentration (35.5 mg/kg, 12 h) was 5.5 ± 4.8 μgB/g. For the same substance, the Cerebrum boron concentration (35.5 mg/kg, 12 h) was 0.9 ± 1.6 μgB/g, the “Concentration ratio Tumor:Blood” value (35.5 mg/kg, 12 h) was 1.0 and the Tumor boron concentration (35.5 mg/kg, 12 h) was 5.5 ± 4.8 μgB/g. The Blood boron concentration (187 mg/kg, 190 h) was 13.2 ± 6.3 μgB/g, the Cerebrum boron concentration (187 mg/kg, 190 h) was 7.0 μgB/g and the “Concentration ratio Tumor:Blood” value (187 mg/kg, 190 h) was 1.0. For the same substance, the Tumor boron concentration (187 mg/kg, 190 h) was 12.6 ± 1.7 μgB/g, the Blood boron concentration (187 mg/kg, 219 h) was 4.9 ± 1.1 μgB/g and the Cerebrum boron concentration (187 mg/kg, 219 h) was 1.0 ± 0.4 μgB/g. For the same substance, the “Concentration ratio Tumor:Blood” value (187 mg/kg, 219 h) was 1.6, the Tumor boron concentration (187 mg/kg, 219 h) was 7.9 ± 1.5 μgB/g and the Blood boron concentration (195 mg/kg, 219 h) was 5.5 ± 3.0 μgB/g. The Cerebrum boron concentration (195 mg/kg, 219 h) was 1.2 ± 1.0 μgB/g, the “Concentration ratio Tumor:Blood” value (195 mg/kg, 219 h) was 1.5 and the Tumor boron concentration (195 mg/kg, 219 h) was 8.5 ± 2.9 μgB/g. For the same substance, the Blood boron concentration (262 mg/kg, 234 h) was 7.7 ± 4.6 μgB/g, the Cerebrum boron concentration (262 mg/kg, 234 h) was 3.2 ± 0.0 μgB/g and the “Concentration ratio Tumor:Blood” value (262 mg/kg, 234 h) was 1.8. The Tumor boron concentration (262 mg/kg, 234 h) was 14.1 ± 1.1 μgB/g.
